Experimental data taken from paper PMC5154303, “Flavonol and imidazole derivatives block HPV16 E6 activities and reactivate apoptotic pathways in HPV^+ cells” (Cell Death & Disease, 2016).
pEC50: −log10 of the molar value.

Experiments:
UPCI-SCC90-UP-Clone 35 [1] = assay: TRAIL-induced cell death in HPV+ HNSCC line UPCI-SCC90-UP-Clone 35 (MTT); format: cell-based, human; settings: HPV+ #90, 40 μM compound 4 h, 50 ng/ml TRAIL + cycloheximide
Procedure: (§1) Figure 7 Myricetin and spinacine (5) can re-sensitize HPV^+, but not HPV^−, head and neck cancer cell lines to treatment with TRAIL. (a) Both HPV^− and HPV^+ HN cancer cell lines display resistance to TRAIL treatment. (b) HPV^− (UMSCC 29 and SCC 84) and (c) HPV^+ (UMSCC 47, UPCI-SCC90-UP-Clone 35, and UM-SCC47-TC-Clone 3) head and neck cancer cell lines (2 × 10^4 cells per well) were seeded into 96-well plates and allowed to incubate overnight, and then cells were pretreated with myricetin (0–200 μM) or spinacine (0–100 μM) for 4 h. […] Cell viability was measured by the MTT assay, and the viability of cells untreated with small molecules was set at 100%. Experiments were performed in triplicate, and error bars indicate the S.D.
(§2) The extracellular domain of human TRAIL was cloned into a pTriEx expression plasmid containing N-terminal Hisx6 tag. His-TRAIL was expressed in the E. coli BL-21 pLys strain and purified as previously described. Doxorubicin and cisplatin were purchased from Sigma. His-TRAIL, doxorubicin, and cisplatin were diluted in PBS to the desired concentration before using. […] All experiments were repeated at least three times (three biological replicates, carried out on different days), with each experimental group measured in triplicate within each of these individual experiments. […]

UMSCC 47 = assay: Sensitization to doxorubicin in HPV+ HNSCC line UMSCC 47 (MTT); format: cell-based, human; settings: HPV+ #47, 12.5 μM compound 4 h, 2 μM doxorubicin
Procedure: (§3) Figure 8 Myricetin and spinacine (5) can re-sensitize HPV^+, but not HPV^−, HNSCC cell lines to treatment with doxorubicin. Two HPV^− (UMMSCC 29 and SCC 84) and three HPV^+ (UMSCC 47, UPCI-SCC90-UP-Clone 35, and UM-SCC47-TC Clone 3) head and neck cancer cell lines (2 × 10^4 cells per well) were seeded into 96-well plates and allowed to incubate overnight, and then cells were pretreated with myricetin or spinacine (0–12.5 μM) for 4 h. In all, 2 μM of doxorubicin was added, and the cells were allowed to incubate overnight. Cell viability was measured by MTT assay, and the viability of cells untreated with small molecules was set at 100%. Experiments were performed in triplicate, and error bars indicate the S.D.
as §2

UM-SCC47-TC-Clone 3 = assay: Sensitization to doxorubicin in HPV+ HNSCC line UM-SCC47-TC-Clone 3 (MTT); format: cell-based, human; settings: HPV+ #47CL3, 12.5 μM compound 4 h, 2 μM doxorubicin
Procedure: as §3, §2

[2] = biological target: GST-caspase 8/His-caspase 8 (Homo sapiens, UniProt Q14790); assay: AlphaScreen counter-screen GST-caspase 8/His-caspase 8; format: binding; settings: counter-screen, bead-based assay, 1.4 μM–3.2 mM tested
Procedure: (§4) Figure 2 3-(1H-indol-1yl)propan-1-amine (1), three benzimidazole derivatives (2–4), and spinacine (5) inhibit protein–protein interactions. Five compounds at the indicated concentrations (1.4 μM–3.2 mM) were tested using our bead-based screening assay for their ability to inhibit three different protein/protein interactions: (a) GST-E6/His-caspase 8; (b) GST-E6/HisE6AP; and (c) GST-caspase 8/His-caspase 8. Binding in the presence of 1.4 μM of the test compound was set at 100%. Experiments were performed in triplicate, and error bars indicate the S.D.
To ask whether this inhibition was specific, we employed a counter-screening assay in which we assessed the ability of candidates to inhibit the binding of GST-caspase 8 to His-caspase 8; those that did were to be eliminated. In this counter-screening assay, the materials in each well were the same as in the primary screen, with the exception that GST-caspase 8 replaced GST-E6.
(§5) AlphaScreen Technology was used to assess the interactions between GST-E6, GST-caspase 8, His-E6AP, and His-caspase 8. Binding assays were performed in white 384-well plates (Perkin-Elmer) in a total volume of 25 μl as previously described.[33] Briefly, 5 μl (50 ng) of GST-E6 and 5 μl (87.5 ng) of His-caspase 8 were included in each reaction mixture with 5 μl blocking buffer (0.5 mg BSA, 0.5% Tween 20 in PBS) in the absence or presence of 10 μM of each test chemical. Members of the library were present at 10 μM in DMSO. After a 1-h incubation of the mixture at room temperature, 5 μl donor beads and 5 μl acceptor beads (Perkin-Elmer) were added to each well according to the manufacturer's protocol. The mixture was incubated in the dark at room temperature overnight, and the emitted signal was detected using the Envision Multilabel plate reader (Perkin-Elmer). In the presence of test chemicals, the binding affinity was calculated as a percentage of the binding in the presence of carrier only (DMSO).

UMSCC29 = assay: TRAIL-induced cell death in HPV− HNSCC line UMSCC29 (MTT); format: cell-based, human; settings: HPV− #29, myricetin 0–200 μM or spinacine 0–100 μM, 50 ng/ml TRAIL
Procedure: as §1, §2

UPCI-SCC90-UP-Clone 35 [3] = assay: Sensitization to doxorubicin in HPV+ HNSCC line UPCI-SCC90-UP-Clone 35 (MTT); format: cell-based, human; settings: HPV+ #90, 12.5 μM compound 4 h, 2 μM doxorubicin
Procedure: as §3, §2

GST-E6/His-caspase 8 = biological target: T1, GST-E6/His-caspase 8 (Human papillomavirus type 16, UniProt P03126); assay: AlphaScreen bead-based binding assay GST-E6/His-caspase 8; parameters: species or system HPV 16
T1 construct: made in house
Procedure: as §4
The construction of the pGEX-E6, pTriEx-E6AP, and pTriEx-Caspase-8 DED plasmids has been reported.[33] Expression and purification of GSTE6, His-E6AP, and His-Caspase-8 DED were carried out as previously described.[33], [37] GST-tagged and His-tagged proteins were diluted into GST dilution buffer (PBS pH 8.0, 5% glycerol, 2 mM DTT) and His dilution buffer (20 mM Hepes pH 7.4, 150 mM NaCl, 2 mMKCl, 5% glycerol, 2 mM DTT), respectively. Protein concentration was measured using Coomassie Plus – The Better Bradford Assay Reagent (Thermo Scientific, Waltham, MA, USA). Purity of the isolated proteins was estimated following separation by sodium dodecyl sulfate-polyacrylamide gel electrophoresis (SDS-PAGE) and Coomassie staining.
as §5

T1 sequence (P03126 whole entry): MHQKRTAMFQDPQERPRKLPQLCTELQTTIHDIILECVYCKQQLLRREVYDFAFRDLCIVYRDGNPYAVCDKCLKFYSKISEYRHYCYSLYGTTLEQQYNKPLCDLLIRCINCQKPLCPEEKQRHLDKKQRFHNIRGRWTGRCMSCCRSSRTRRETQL
GST-caspase 8/His-caspase 8, sequence (Q14790 1-184): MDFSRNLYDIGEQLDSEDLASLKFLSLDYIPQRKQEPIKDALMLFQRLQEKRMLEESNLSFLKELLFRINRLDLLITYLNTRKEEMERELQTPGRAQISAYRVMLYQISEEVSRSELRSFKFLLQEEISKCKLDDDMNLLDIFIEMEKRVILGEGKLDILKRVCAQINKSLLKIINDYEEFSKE

| Structure (SMILES) | enhancement of TRAIL-induced cell death (UPCI-SCC90-UP-Clone 35 [1]) | sensitization to doxorubicin (UMSCC 47) | sensitization to doxorubicin (UM-SCC47-TC-Clone 3) | EC50 for GST-caspase 8/His-caspase 8 interaction [2] | response to TRAIL in presence and absence of compound (UMSCC29) | sensitization to doxorubicin (UPCI-SCC90-UP-Clone 35 [3]) | pEC50 (GST-E6/His-caspase 8) |
| --- | --- | --- | --- | --- | --- | --- | --- |
| O=C(O)C1Cc2[nH]cnc2CN1 (stereo not drawn) [Spinacine (5), 4,5,6,7-tetrahydro-1H-imidazo[4,5–c]pyridine-6-carboxylic acid] | up to 50% | up to 50% | up to 50% | No Inhibition | resistant | up to 50% | 4.77 |
| O=c1c(O)c(-c2cc(O)c(O)c(O)c2)oc2cc(O)cc(O)c12 [Myricetin, myricetin, reference compound] | 30% | – | – | – | resistant | – | – |
